{
  "source": "patent US20080044491A1",
  "about": "“METAL-CONTAINING FORMULATIONS AND METHODS OF USE” (priority 2006, published 2008)",
  "key": {"Staphylococcus aureus": {"system": "Staphylococcus aureus", "experiment": "MIC assay (microdilution)", "format": "cell-based"}, "Streptococcus pyogenes": {"system": "Streptococcus pyogenes", "experiment": "MIC assay (microdilution)", "format": "cell-based", "conditions": "lactate solutions, nanocrystalline silver = range for 12 samples"}, "E. coli": {"system": "E. coli", "experiment": "Minimal bactericidal concentration (MBC) assay", "format": "cell-based, Escherichia coli", "description": "(§1) Minimal bactericidal concentration (MBC) assay—Overnight-grown MIC plates, prepared as described in Example 16, were evaluated to determine the MIC. Culture was then sampled from wells at and near the MIC using sterile inoculating loops, and transferred to fresh MHA plates to determine if viable bacteria remained. […] The MBC was determined as the well in the MIC plate which contained the lowest concentration of silver yielding no bacterial growth on the MHA plate."}, "Staph epidermidis": {"system": "Staph epidermidis", "experiment": "Minimal bactericidal concentration (MBC) assay", "format": "cell-based, Staphylococcus epidermidis", "conditions": "Staph epidermidis 12228 (ATCC type strain)", "description": "as §1"}, "[1]": {"system": "Staphylococcus epidermidis", "experiment": "MIC assay (microdilution)", "format": "cell-based"}, "Pseudomonas aeruginosa": {"system": "Pseudomonas aeruginosa", "experiment": "MIC assay (microdilution)", "format": "cell-based"}, "Ps. aeruginosa": {"system": "Ps. aeruginosa", "experiment": "Minimal bactericidal concentration (MBC) assay", "format": "cell-based, Pseudomonas aeruginosa", "conditions": "Ps. aeruginosa 27317 (ATCC type strain)", "description": "as §1"}, "[2]": {"system": "Mycobacterium tuberculosis H37Ra (ATCC 25177)", "format": "cell-based"}, "Serratia marcescens": {"system": "Serratia marcescens", "experiment": "MIC assay (microdilution)", "format": "cell-based"}, "Streptococcus pneumoniae": {"system": "Streptococcus pneumoniae", "experiment": "MIC assay (microdilution)", "format": "cell-based", "conditions": "lactate solutions, nanocrystalline silver = range for 12 samples"}, "K. pneumoniae": {"system": "K. pneumoniae", "experiment": "Minimal bactericidal concentration (MBC) assay", "format": "cell-based, Klebsiella pneumoniae", "conditions": "K. pneumoniae NP403 (listed twice)", "description": "as §1"}, "Escherichia coli": {"system": "Escherichia coli", "experiment": "MIC assay (microdilution)", "format": "cell-based"}, "Klebsiella pneumoniae": {"system": "Klebsiella pneumoniae", "experiment": "MIC assay (microdilution)", "format": "cell-based", "conditions": "K. pneumoniae NP403 (listed twice)"}, "Shigella flexneri": {"system": "Shigella flexneri", "experiment": "MIC assay (microdilution)", "format": "cell-based", "conditions": "Shigella flexneri ATCC 12022"}, "Ser. marcescens": {"system": "Ser. marcescens", "experiment": "Minimal bactericidal concentration (MBC) assay", "format": "cell-based, Serratia marcescens", "description": "as §1"}, "Staph. aureus": {"system": "Staph. aureus", "experiment": "Minimal bactericidal concentration (MBC) assay", "format": "cell-based, Staphylococcus aureus", "description": "as §1"}, "[3]": {"conditions": "Staph. aureus 6538 (ATCC type strain)"}, "[4]": {"conditions": "Staph. aureus 700699 (ATCC type strain)"}, "[5]": {"conditions": "E. coli 8739 (ATCC type strain)"}, "[6]": {"conditions": "E. coli 43745 (ATCC type strain)"}, "[7]": {"conditions": "Ser. marcescens NP402 (listed twice)"}, "[8]": {"conditions": "Ser. marcescens NP408 (listed twice)"}},
  "note": "Where “and” joins values, the source holds several entries; their conditions need not be identical. Equal values may be shown once.",
  "data": [
    {"smiles": "O=[N+]([O-])[O-].[Ag+]", "note": "[AgNO3, silver nitrate]", "values": [
      {"measurement": "MIC", "setting": "Staphylococcus aureus; S. aureus (ATCC), lactate solutions, nanocrystalline silver = range for 12 samples", "result": 11, "unit": "µg/mL"},
      {"measurement": "MIC", "setting": "Staphylococcus aureus; S. aureus (clin.), lactate solutions, nanocrystalline silver = range for 12 samples", "result": 5, "unit": "µg/mL"},
      {"measurement": "MIC", "setting": "Staphylococcus aureus; [3]", "result": 6, "unit": "parts silver per million"},
      {"measurement": "MIC", "setting": "Staphylococcus aureus; [4]", "result": 3, "unit": "parts silver per million"},
      {"measurement": "MIC", "setting": "Streptococcus pyogenes; S. pyog (clin. 303)", "result": 3, "unit": "µg/mL"},
      {"measurement": "MIC", "setting": "Streptococcus pyogenes; S. pyog (clin. 304)", "result": 5, "unit": "µg/mL"},
      {"measurement": "MBC", "setting": "E. coli; [5]", "result": 0.4, "unit": "parts silver per million"},
      {"measurement": "MBC", "setting": "E. coli; [6]", "result": 0.4, "unit": "parts silver per million"},
      {"measurement": "MBC", "setting": "Staph epidermidis", "result": 3, "unit": "parts silver per million"},
      {"measurement": "MIC", "setting": "[1]; S. epiderm (ATCC), lactate solutions, nanocrystalline silver = range for 12 samples", "result": 3, "unit": "µg/mL"},
      {"measurement": "MIC", "setting": "[1]; Staph epidermidis 12228 (ATCC type strain)", "result": 3, "unit": "parts silver per million"},
      {"measurement": "MIC", "setting": "Pseudomonas aeruginosa; P. aerug (ATCC), lactate solutions, nanocrystalline silver = range for 12 samples", "result": 3, "unit": "µg/mL"},
      {"measurement": "MIC", "setting": "Pseudomonas aeruginosa; P. aerug. (clin.), lactate solutions, nanocrystalline silver = range for 12 samples", "result": 3, "unit": "µg/mL"},
      {"measurement": "MIC", "setting": "Pseudomonas aeruginosa; P. aeruginosa isolate NP212, formulation type Lactate", "result": 2, "unit": "ppm"},
      {"measurement": "MIC", "setting": "Pseudomonas aeruginosa; P. aeruginosa isolate NP212, formulation type Water/Lecithin", "result": 3, "unit": "ppm"},
      {"measurement": "MIC", "setting": "Pseudomonas aeruginosa; P. aeruginosa isolate NP212, formulation type Water/PVA", "result": 3, "unit": "ppm"},
      {"measurement": "MIC", "setting": "Pseudomonas aeruginosa; Ps. aeruginosa 9027 (ATCC type strain)", "result": 1, "unit": "parts silver per million"},
      {"measurement": "MIC", "setting": "Pseudomonas aeruginosa; Ps. aeruginosa 27317 (ATCC type strain)", "result": 2, "unit": "parts silver per million"},
      {"measurement": "MBC", "setting": "Ps. aeruginosa", "result": 3, "unit": "parts silver per million"},
      {"measurement": "minimum inhibitory concentration (MIC)", "setting": "[2]", "result": 2.5, "unit": "μg/ml silver"},
      {"measurement": "MIC", "setting": "Serratia marcescens; [7]", "result": 6, "unit": "parts silver per million"},
      {"measurement": "MIC", "setting": "Serratia marcescens; [8]", "result": "6 parts silver per million and 11 parts silver per million"},
      {"measurement": "MIC", "setting": "Streptococcus pneumoniae; S. pneumo (clin 314)", "result": 11, "unit": "µg/mL"},
      {"measurement": "MIC", "setting": "Streptococcus pneumoniae; S. pneumo (clin 315)", "result": 21, "unit": "µg/mL"},
      {"measurement": "MBC", "setting": "K. pneumoniae", "result": "6 parts silver per million and 3 parts silver per million"},
      {"measurement": "MIC", "setting": "Escherichia coli; [5]", "result": 0.4, "unit": "parts silver per million"},
      {"measurement": "MIC", "setting": "Escherichia coli; [6]", "result": 1, "unit": "parts silver per million"},
      {"measurement": "MIC", "setting": "Escherichia coli; E. coli (ATCC), lactate solutions, nanocrystalline silver = range for 12 samples", "result": 3, "unit": "µg/mL"},
      {"measurement": "MIC", "setting": "Klebsiella pneumoniae", "result": 6, "unit": "parts silver per million"},
      {"measurement": "MIC", "setting": "Shigella flexneri; formulation type Lactate", "result": 2, "unit": "ppm"},
      {"measurement": "MIC", "setting": "Shigella flexneri; formulation type Water/Lecithin", "result": 2, "unit": "ppm"},
      {"measurement": "MIC", "setting": "Shigella flexneri; formulation type Water/PVA", "result": 1, "unit": "ppm"},
      {"measurement": "MBC", "setting": "Ser. marcescens; [7]", "result": 6, "unit": "parts silver per million"},
      {"measurement": "MBC", "setting": "Ser. marcescens; [8]", "result": "6 parts silver per million and 11 parts silver per million"},
      {"measurement": "MBC", "setting": "Staph. aureus; [3]", "result": 6, "unit": "parts silver per million"},
      {"measurement": "MBC", "setting": "Staph. aureus; [4]", "result": 6, "unit": "parts silver per million"}
    ]}
  ]
}
